Test system: PVL
Assay: Influence of various monosaccharides on the agalacto-IgG assay system (PVL immobilized on plate, peroxidase-labeled anti-human IgG antibody)
Format: binding, Psathyrella velutina
Conditions: 50 mM monosaccharide added to agalacto-IgG standard solution (2.5 µg/ml); value without monosaccharide defined as 100%
Experimental: PVL purified in Example 1 or commercially available PVL was diluted to 20 µg/ml in 0.1 M carbonate buffer containing 10% glycerol (pH 8.5 to 9), and 50 µl of this solution (1 µg/well) was added to each well of a Nunc immunoplate (trade name; Maxisorp, Nunc), and left at 4°C for 16 hours to uniformly coat each well.
This plate was washed twice with PBS(-), and PBS(-) solution containing 3% bovine serum albumin (BSA, sold by Seikagaku Corporation) was added as a blocking agent, and left stand at room temperature for two hours to coat the portions of the wells on which PVL was not immobilized.
Then, the plate was washed three times with a washing solution (PBS(-) containing 0.05% Tween 20), and 50 µl each of standard solutions at various concentrations (0.125 to 2 µg/ml) of the agalacto-IgG purified in Preparation Example 1 was added, and left stand at 37°C for 60 minutes for reaction. As the solvent of the agalacto-IgG standard solutions, PBS(-) containing 1% BSA and 0.05% Tween 20 (referred to as "reaction diluent" hereinafter) was used. […]
After the color development, 50 µl of 1 N HCl was added to the plate to terminate the reaction, and absorbance at a wavelength of 450 nm of the solution colored by the decomposition of TMB was measured (reference wavelength: 630 nm, A450/630) by Well Reader SK601 (sold by Seikagaku Corporation). […]

CC(=O)N[C@H]1C(O)O[C@H](CO)[C@@H](O)[C@@H]1O (stereo partly shown) [GlcNAc, N-acetylglucosamine]
inhibition: about 50%
